Experimental data published in the METLIN SMRT retention time set (Domingo-Almenara et al. 2019).

Experiment: gradient 5% acetonitrile 3 min, to 50% in 2 min, to 85% in 15 min, held 3 min, 100 µL/min
Conditions: column: Zorbax Extend-C18 2.1 x 50 mm; eluents: water / acetonitrile, 0.1% formic acid
Summary of the method: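 Values are retention times taken from adduct peaks that software picked and an analyst inspected. The pure standards were run as mixtures of ~100 molecules on HPLC linked to a quadrupole time-of-flight mass spectrometer, in positive and negative ionization mode. A Zorbax Extend-C18 column (2.1 × 50 mm, 1.8 μm) was used at 100 μL/min with water and acetonitrile, each including 0.1% formic acid.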

| Structure (SMILES) | RP-LC retention time [s] |
| --- | --- |
| CCCn1cc(S(=O)(=O)Nc2ccc(Cl)cc2F)c2cccnc21 | 980 |
| CCCc1cc(C2CCCN2C(=O)Nc2ccc(C(=O)OC)cc2)no1 (stereo not drawn) | 807 |
| Cc1nc2ccccc2n1Cc1nnc2sc(-c3cccnc3)nn12 | 550 |
| Cc1ccccc1NC(=O)NCC(c1cccnc1)c1cn(C)c2ccccc12 (stereo not drawn) | 680 |
| O=C(Nc1nnc(SCC(=O)N2CCCc3ccccc32)s1)c1cccs1 | 827 |
| O=C(NCC1CCCO1)c1ccc(Cn2nc(N3CCN(c4ccccc4)CC3)ccc2=O)o1 (stereo not drawn) | 737 |
| Cc1nc(-c2cc(S(=O)(=O)NCc3ccccc3Cl)c(C)s2)cs1 | 1080 |
| Cc1ccc(C(=O)Nc2nc(-c3ccc(Br)cc3)cs2)cc1[N+](=O)[O-] | 1210 |
| CCOC(=O)C1=C(CN2CCC(N3CCCCC3)CC2)NC(=O)NC1c1ccc(Cl)cc1 (stereo not drawn) | 599 |
| COC(=O)c1c(NCc2cccnc2)c2cccc(Cl)c2[nH]c1=O | 566 |
| CC(=O)c1cccc(NC(=O)c2cnn(-c3ccc(Br)cc3)c2)c1 | 940 |
| Cc1ccc(C)c(NC(=O)C2CCCN(c3cn[nH]c(=O)c3)C2)c1 (stereo not drawn) | 668 |
| O=C(NCC1CCCO1)c1ccc2ncnc(N3CCCC3)c2c1 (stereo not drawn) | 575 |
| O=C(C1CC(=O)N(c2ccc3c(c2)CCN3C(=O)C2CC2)C1)N1CCC2(CC1)OCCO2 (stereo not drawn) | 652 |
| CCCNc1cc(N2CCCC(CCC(=O)Nc3ccc(OC)c(OC)c3)C2)ncn1 (stereo not drawn) | 667 |
| CC1Oc2ccccc2N(Cc2nc(-c3ccc(F)c(Cl)c3)no2)C1=O (stereo not drawn) | 1190 |
| CSc1ccccc1C(=O)Nc1ccc2cn[nH]c2c1 | 673 |
| Cc1ccc(C(=O)NCC2CN(C(C)C)CC23CCCCC3)s1 (stereo not drawn) | 670 |
| CCc1cc(C(=O)Nc2ccc(OC)cc2)nc2cc(-c3ccccn3)nn12 | 1000 |
| Cc1ccc(N2C=C(C(=O)N3CCCC3)S(=O)(=O)c3ccc(F)cc32)cc1 | 799 |
| Cc1noc(COC2CCN(C(=O)c3ccccc3F)CC2)n1 | 818 |
| CN(C)S(=O)(=O)c1ccc(-c2nnc(C(=O)NCc3cccc(Cl)c3)o2)cc1 | 969 |

| Structure (SMILES) | RP-LC retention time [s] |
| --- | --- |
| O=C(c1ccc(Cl)cc1)N1CCC2(C1)C(=O)Nc1ccccc12 (stereo not drawn) | 765 |
| CC(C)Cn1cc(CCNS(=O)(=O)c2ccc3c(c2)CCC3)c2cccnc21 | 1040 |
| COc1cccc(N2CCN(C(=O)Cn3ccc4c(SCc5ccc(F)cc5)nccc43)CC2)c1 | 795 |
| COc1ccc2cc(C(=O)N3CC(n4cc(COCC5CC5)nn4)C3)[nH]c2c1 | 745 |
| Cn1cnnc1C1CCCCN1S(=O)(=O)c1cccs1 (stereo not drawn) | 639 |
| Cc1cccc(-n2c(=O)c3sccc3n(Cc3nc(-c4ccc(C(F)(F)F)cc4)no3)c2=O)c1 | 1120 |
| Cc1ccc(CNC(=O)C2(C)CCN(C(=O)Nc3ccc(C)c(Cl)c3)CC2)cc1 | 972 |
| Cc1[nH]c(C)c(S(=O)(=O)N2CCC(C(=O)NC3CCCCCC3)CC2)c1C(=O)N1CCCC1 | 702 |
| CCOc1ccc(-n2c(CN3CCN(C(=O)NCCCOC)CC3)nc3cccnc32)cc1 | 609 |
| Cc1cccc(C)c1Nc1c(-c2ccc(N3CCOCC3)cc2)nc2ncccn12 | 721 |
| Cc1cnc(C)n1CC1CCN(S(=O)(=O)Cc2ccccc2)C1 (stereo not drawn) | 618 |
| Cc1cc(C)cc(C(=O)OC2C[C@H]3CC[C@@H](C2)N3C)c1 (stereo partly drawn) | 729 |
| CCN1CCn2cc(C(=O)NCc3ccc(C(C)C)cc3)nc2C1 | 644 |
| Cc1cccc(CNC(=O)C2CCN(CCc3cn(C)c4ncccc34)CC2)c1 | 626 |
| CCNc1nccc(N2CCC(CC(=O)NCc3ccc(OC)c(OC)c3)CC2)n1 | 614 |
| CC1CN(c2ccccc2)c2nc3c(c(=O)n(CC(=O)O)c(=O)n3C)n2C1 (stereo not drawn) | 709 |
| COc1cccc(CCNC(=O)CN2C(=O)CSc3cccn3-c3ccccc32)c1 | 900 |
| CC(C)Cc1nc(-c2ccccc2)oc1CC(=O)Nc1ccc(F)cc1Cl | 1180 |
| Cc1cccc(C(=O)Nc2nc(-c3ccc4c(c3)N(C)C(=O)C(C)O4)cs2)c1 (stereo not drawn) | 1050 |
| COc1ccc(-n2ccc(=O)c(-c3nc(-c4ccccc4Cl)no3)n2)cc1 | 877 |
| O=C(CN1C[C@H]2C[C@H](C1)[C@H]1CCCC(=O)N1C2)NCCC1=CCCCC1 | 627 |
| COC(=O)c1ccc(OC(=O)N(C)c2ccccc2)cc1 | 879 |

| Structure (SMILES) | RP-LC retention time [s] |
| --- | --- |
| Cc1cccc(-c2ncccc2CNS(=O)(=O)Cc2ccc(Cl)cc2)c1 | 765 |
| CNC(=O)c1cc[nH]c1C1CCCN(C(=O)C2CC=CCC2)C1 (stereo not drawn) | 672 |
| CSc1cccc(NC(=O)c2[nH]c3cc(C)sc3c2CN2CCOCC2)c1 | 733 |
| CCS(=O)(=O)N1CCCN(C(=O)NC)CC1 | 566 |
| CCOc1ccc(-c2noc(Cn3cnc4c(cnn4-c4ccc(OC)cc4)c3=O)n2)cc1OC | 973 |
| Cc1ccc(-c2cc(C(=O)NC3CCCCC3)c(C)[nH]2)cc1 | 958 |
| O=C1C2CCCN2C(=O)c2ccccc2N1CCc1ccccc1 (stereo not drawn) | 757 |
| CC1Oc2ccc(S(=O)(=O)N3CCC(C(=O)Nc4cccc(Cl)c4)CC3)cc2NC1=O (stereo not drawn) | 891 |
| Cc1sc(C)c(S(=O)(=O)N2CC=C(c3ccccc3)CC2)c1-c1cc(C(F)(F)F)on1 | 1300 |
| CC(C)c1ccc(S(=O)(=O)N2CCCC2c2nc(-c3cccc(Cl)c3)no2)cc1 (stereo not drawn) | 1350 |
| O=C1CCCc2cc(S(=O)(=O)NCCCN3CCN(c4ccccc4)CC3)ccc2N1 | 576 |
| Cc1ccsc1C(=O)N1CCCn2nc(-c3ccncc3)cc2C1 | 602 |
| CCOC(=O)c1c(C)oc2nc(C)nc(NCCCc3ccccc3)c12 | 1280 |
| CNC(=O)C1CN(C(=O)Nc2cc(OC)cc(OC)c2)CC12CCCC2 (stereo not drawn) | 683 |
| COC(=O)c1ccc(NC(=O)C2CCN(S(=O)(=O)c3c(C)nn(-c4ccccc4)c3C)CC2)cc1 | 955 |
| CCc1nc(OCC(=O)Nc2ccccc2Br)c2ccccc2n1 | 827 |
| Cc1ccc2c(c1)N(C(=O)CCC(=O)NCCCN1CC(C)CC(C)C1)CC(C)O2 (stereo not drawn) | 704 |
| CN(C)CC1(O)CCC2(CCN(Cc3ccc(Cl)c(F)c3)CC2)CC1 | 658 |
| COc1ccc(C(=O)CN(C(=O)N2CCN(C)CC2)S(=O)(=O)c2ccc(C)cc2)cc1 | 588 |
| COc1ccc2[nH]cc(CCn3ccc4c(nnc5ccnn54)c3=O)c2c1 | 686 |
| COC(=O)c1ncn2c1C(=O)N(c1ccc(C)c(C)c1)C(C)(C(=O)NC1CCCC1)C2 (stereo not drawn) | 750 |
| O=C(NCCCn1cccc1)c1cc(-c2ccccc2)on1 | 888 |

| Structure (SMILES) | RP-LC retention time [s] |
| --- | --- |
| O=C(NCc1ccc(F)cc1)c1nnc(-c2ccc(S(=O)(=O)N3CCOCC3)cc2)o1 | 910 |
| COc1ccc(-c2noc(C3CC(=O)N(c4ccc(OC)c(Cl)c4)C3)n2)cc1 (stereo not drawn) | 947 |
| COc1cccc(NC(=O)C2CCN(S(=O)(=O)c3cc(-c4noc(C)n4)cs3)CC2)c1 | 883 |
| O=C(O)c1cccc(Nc2c(-c3cccc(O)c3)nc3cnccn23)c1 | 633 |
| Cc1ccc(C)c(N2CCN(Cc3nc(-c4ccc(N5CCOCC5)nc4)no3)CC2)c1 | 949 |
| O=C(c1c(F)cccc1F)N1CCN(S(=O)(=O)c2cc3c4c(c2)CCC(=O)N4CCC3)CC1 | 799 |
| CCC(=O)Nc1ccc(CCc2nc3ccc(C(=O)NC(C)C)cc3[nH]2)cc1 | 813 |
| CN1CCc2[nH]cnc2C12CCN(C(=O)Nc1ccc(Cl)cc1F)C2 (stereo not drawn) | 567 |
| COc1ccc(-c2cnc(S(=O)(=O)CC(=O)NCc3ccccc3Cl)n2C)cc1 | 819 |
| Cc1cc(N2CCCC2)n2nc(CN3CCN(c4ccccc4)CC3)nc2n1 | 600 |
| Cc1ccc2c(c1)C(=O)NC1(CCN(C(=O)Nc3ccc(C)c(C)c3)CC1)N2C | 796 |
| CCOC(=O)c1c(C)[nH]c(C)c1S(=O)(=O)N1CCC(C(=O)Nc2cc(Cl)ccc2C)CC1 | 890 |
| COC(C)C(O)(C(=O)OCC1=CCN2CC[C@H](O)[C@@H]12)C(C)C (stereo partly drawn) | 644 |
| COc1ccc(-c2noc(CN3C(=O)COc4ccc(C(C)(C)C)cc43)n2)cc1OC | 1120 |
| CC(=O)N1CCc2cc(-c3ccc(C(=O)NCCN4CCCCCC4)cc3)ccc21 | 576 |
| COc1ccc(NC(=O)c2cc3ccccc3c(=O)o2)c([N+](=O)[O-])c1 | 920 |
| CCn1cc(S(=O)(=O)N2CCC(c3noc(-c4ccncc4)n3)C2)cn1 (stereo not drawn) | 707 |
| Cc1oc(-c2[nH]ncc2C(=O)N2CCCC2)cc1S(=O)(=O)NCCCN(C)C | 569 |
| Cn1c(=O)oc2cc(-c3noc(-c4cc(F)ccc4Cl)n3)ccc21 | 1090 |
| CCCn1cc(CCNS(=O)(=O)c2cccc(Cl)c2C)c2cccnc21 | 914 |
| C[C@H]1CN(C(=O)c2cc(F)cc(F)c2)C[C@@H]1c1nc(-c2ccncc2)no1 | 781 |
| Cc1onc(-c2ccccn2)c1C(=O)NCCc1c[nH]c2ccc(Cl)cc12 | 1000 |
